Source: article PMC10487708, “Chlorin E6-Curcumin-Mediated Photodynamic Therapy Promotes an Anti-Photoaging Effect in UVB-Irradiated Fibroblasts” (International Journal of Molecular Sciences, 2023)
Where two headings read alike, the source gives them in different places.

Columns and labels:
[1] = system: p-ERK, p-p38, JNK MAPK, p-NF-κB p65, p-c-JUN; assay: Western blot of MAPK, NF-κB and c-JUN signaling in UVB-induced 3T3 fibroblasts; assay type: cell-based, mouse; settings: 3T3 cells; for phosphorylation level of JNK MAPK / phosphorylation levels of ERK and p38 MAPKs: PDT after UVB treatment
Text: One of the major factors of UVB-induced skin aging is inflammation-mediated skin aging. In UVB-induced skin photoaging, increased intracellular ROS can promote MMP production by activating the MAPK, AP-1, and NF-κB pathways. […] Ce6-diPEG-curcumin-PDT and Ce6-propane-curcumin-PDT lowered the phosphorylation levels of ERK and p38 MAPKs but not those of JNK MAPK.
Figure 9 Effect of Ce6-curcumin derivatives-PDT on MAPK, NF-κB and c-JUN signaling proteins. Protein expressions of p-p38, p-38, p-ERK, ERK, p-c-JUN, c-JUN, p-p65 and p65 in the UVB-induced murine 3T3 fibroblast cell line after Ce6-diPEG-curcumin (150 and 200 μΜ) and Ce6-propane-curcumin (75 and 100 μΜ)-PDT treatment. Representative bars are expressed as mean only.
(§1) The cells were lysed with RIPA lysis buffer containing protease inhibitor cocktails (Gen-DEPOT, Katy, TX, USA). Cell lysates were vortexed and centrifuged at 13,000 rpm for 15 min at 4 °C. Protein concentration was determined using the Bradford protein assay kit, and the same amount of protein was separated by SDS-PAGE gel. Then, proteins were transferred to a polyvinylidene fluoride (PVDF) membrane. Further, the membranes were blocked with a blocking solution containing 5% skim milk in Tris-buffered saline containing Tween 20 (TBST) for 1 h and incubated overnight with the primary antibody diluted in 5% skim milk in TBST at 4 °C. Then, the membrane was rinsed with TBST for 30 min and incubated with horseradish peroxidase-conjugated secondary antibodies in a blocking solution for 1 h. All bands were visualized by using an enhanced chemiluminescence (ECL) kit (Pierce, Rockford, IL, USA) under a luminescent image analyzer (Amersham, GE Healthcare, Chicago, IL, USA). The primary antibodies against MMP-1 were obtained from Thermo Fischer Scientific Inc. (NYSE: TMO). Antibodies directed against p-p65, p65, p-p38, p38, p-ERK, ERK, p-c-JUN, and c-JUN were purchased from Cell Signaling Technology Inc. (Beverley, MA, USA). COX-2 and β-Actin antibodies were from Santa Cruz Biotechnology (Santa Cruz, CA, USA), while TNF-α antibodies were procured from Novus Biologicals, Inc. (Centennial, CO, USA).

[2] = MTT cytotoxicity of Ce6-curcumin derivative PDT in BALB/c 3T3 cells; assay type: cell-based, mouse; settings: mouse, BALB/c 3T3 cells; 3 h treatment, 660 nm 20 J/cm^2, MTT after 24 h, tested 200 to 6400 nM; read-out: IC50 cytotoxicity against BALB/c 3T3 cells
Experimental: MTT assay was used to evaluate viability after 24 h. IC50 values were calculated using GraphPad Prism 5 software.
(§2) Hs68 and BALB/c 3T3 cell viability was measured using a 3-[4,5-dimethylthylthiazol-2-yl]-2,5 diphenyl tetrazolium bromide (MTT) assay. The cells were cultured in 24-well plates at a density of 3 × 10^4 cells per well or BALB/c 3T3 cells at a density of 1 × 10^4 cells per well. […] The Hs68 cells were then exposed to LED light (660 nm; 89 W/m^2; 20 J/cm^2) for 37 min 27 s and incubated for 3 h. […] The cells were washed and treated with MTT, after which the plates were incubated at 37 °C in the dark for 2 h. After the formation of formazan, 100 µL of DMSO was added, and the absorbance was measured at 570 nm using a microtiter plate reader (Thermo-scientific, Skanlt software 5.0, Waltham, MA, USA)

Hs68 cells = assay: MTT cell viability of Hs68 cells with or without LED light; assay type: cell-based, human; settings: for IC50: Homo sapiens, light or radiation study, Hs68 cells; for cytotoxicity for Hs68 cells: dark, up to 1000 nM
Experimental: Data were represented as mean ± SD from at least three independent experiments and analyzed by one-way ANOVA with Tukey’s post hoc test, * p < 0.01, compared with vehicle-treated control.
as §2

[3] = ORAC (oxygen radical absorbance capacity) assay; assay type: biochemical; settings: Trolox equivalent
Experimental: The ORAC assay is based on the scavenging of peroxyl radicals generated by 2,2′-azobis(2-methylpropioamidine) dihydrochloride (AAPH), which prevents the degradation of the fluorescein probe. The ORAC values were calculated as the area under the curve (AUC) and expressed as µM of Trolox equivalent (TE).

COX-2, TNF-α, iNOS = assay: Western blot of COX-2, TNF-α and iNOS in UVB-induced 3T3 fibroblasts; assay type: cell-based, mouse; settings: for UVB-upregulated COX-2 and TNF-α protein levels: fibroblast cells
Text: We further investigated the expressions of COX-2, TNF-α, and MMP-1 to ascertain the effect of UVB on the expressions of NF-κB and AP-1-dependent genes. These genes have an NF-κB and AP-1 functional binding site in their promoter regions and are linked to inflammation.
Figure 10 Effect of Ce6-curcumin derivatives-PDT on UVB-induced COX-2 and iNOS expressions. […] Representative bars are expressed as mean only.
as §1

[4] = LED 660 nm 20 J/cm^2, MTT, read-out: Phototoxicity (IC50)
[5] = without LED irradiation, MTT, read-out: Dark Toxicity (IC50)

SMILES	UVB-induced increases in p-NF-κB p65 and p-c-JUN ([1]; 150 and 200 μM followed by laser irradiation)	phosphorylation level of JNK MAPK [1]	phosphorylation levels of ERK and p38 MAPKs [1]	IC50 [2]	IC50 (Hs68 cells; [4])	IC50 (Hs68 cells; [5])	cytotoxicity for Hs68 cells (Hs68 cells)	ORAC LED Condition (TE, μM) ([3]; LED 20 J/cm^2, 1 μM compound)	ORAC LED Condition (TE, μM) ([3]; LED 20 J/cm^2, 10 μM compound)	ORAC Dark Condition (TE, μM) ([3]; 1 μM compound)	ORAC Dark Condition (TE, μM) ([3]; 10 μM compound)	expression levels of iNOS and COX-2 (COX-2, TNF-α, iNOS; 200 nM, PDT, UVB-induced 3T3)	UVB-upregulated COX-2 and TNF-α protein levels (COX-2, TNF-α, iNOS; 150 and 200 μΜ)	UVB-induced increases in p-NF-κB p65 and p-c-JUN ([1]; 75 and 100 μM followed by laser irradiation)	phototoxicity toward human dermal fibroblasts, Hs68 (Hs68 cells; with PDT, up to a dose of 1000 nM)	UVB-upregulated COX-2 and TNF-α protein levels (COX-2, TNF-α, iNOS; 75 and 100 μΜ)
C=Cc1c(C)c2cc3nc(c(CC(=O)OC)c4[nH]c(cc5nc(cc1[nH]2)C(C)=C5CC)c(C)c4C(=O)NCCCOCCOCCOCCCNC(=O)CCCC(=O)Oc1ccc(/C=C/C(=O)CC(=O)/C=C/c2ccc(O)c(OC)c2)cc1OC)C(CCC(=O)OC)C3C (centres unmarked) [Ce6-diPEG-curcumin]	greatly reversed this trend	not	lowered	0.83 µM	0.693 µM	≥ 1 µM	almost no cytotoxicity	0.85 µM	27.98 µM	20.85 µM	30.32 µM	below those seen in the normal control	downregulated these increases	–	–	–
C=Cc1c(C)c2cc3nc(c(CC(=O)OC)c4[nH]c(cc5nc(cc1[nH]2)C(C)=C5CC)c(C)c4C(=O)NCCCNC(=O)CCCC(=O)Oc1ccc(/C=C/C(=O)CC(=O)/C=C/c2ccc(O)c(OC)c2)cc1OC)C(CCC(=O)OC)C3C (centres unmarked) [Ce6-propane-curcumin]	–	not	lowered	2.04 µM	≥ 1 µM	≥ 1 µM	almost no cytotoxicity	2.78 µM	30.66 µM	20.11 µM	26.83 µM	–	–	greatly reversed this trend	no phototoxicity	downregulated these increases
